Literature values in US9364565B2, “Medical device with coating for capturing genetically-altered cells and methods of using same” (OrbusNeich Medical, Inc., priority 2000, dated 2016).

What was measured:
VEGFR-2 = VEGFR-2 (Homo sapiens, UniProt P35968)
endothelial cells = details: 100 μg

Sequence of VEGFR-2 (P35968 20-1356): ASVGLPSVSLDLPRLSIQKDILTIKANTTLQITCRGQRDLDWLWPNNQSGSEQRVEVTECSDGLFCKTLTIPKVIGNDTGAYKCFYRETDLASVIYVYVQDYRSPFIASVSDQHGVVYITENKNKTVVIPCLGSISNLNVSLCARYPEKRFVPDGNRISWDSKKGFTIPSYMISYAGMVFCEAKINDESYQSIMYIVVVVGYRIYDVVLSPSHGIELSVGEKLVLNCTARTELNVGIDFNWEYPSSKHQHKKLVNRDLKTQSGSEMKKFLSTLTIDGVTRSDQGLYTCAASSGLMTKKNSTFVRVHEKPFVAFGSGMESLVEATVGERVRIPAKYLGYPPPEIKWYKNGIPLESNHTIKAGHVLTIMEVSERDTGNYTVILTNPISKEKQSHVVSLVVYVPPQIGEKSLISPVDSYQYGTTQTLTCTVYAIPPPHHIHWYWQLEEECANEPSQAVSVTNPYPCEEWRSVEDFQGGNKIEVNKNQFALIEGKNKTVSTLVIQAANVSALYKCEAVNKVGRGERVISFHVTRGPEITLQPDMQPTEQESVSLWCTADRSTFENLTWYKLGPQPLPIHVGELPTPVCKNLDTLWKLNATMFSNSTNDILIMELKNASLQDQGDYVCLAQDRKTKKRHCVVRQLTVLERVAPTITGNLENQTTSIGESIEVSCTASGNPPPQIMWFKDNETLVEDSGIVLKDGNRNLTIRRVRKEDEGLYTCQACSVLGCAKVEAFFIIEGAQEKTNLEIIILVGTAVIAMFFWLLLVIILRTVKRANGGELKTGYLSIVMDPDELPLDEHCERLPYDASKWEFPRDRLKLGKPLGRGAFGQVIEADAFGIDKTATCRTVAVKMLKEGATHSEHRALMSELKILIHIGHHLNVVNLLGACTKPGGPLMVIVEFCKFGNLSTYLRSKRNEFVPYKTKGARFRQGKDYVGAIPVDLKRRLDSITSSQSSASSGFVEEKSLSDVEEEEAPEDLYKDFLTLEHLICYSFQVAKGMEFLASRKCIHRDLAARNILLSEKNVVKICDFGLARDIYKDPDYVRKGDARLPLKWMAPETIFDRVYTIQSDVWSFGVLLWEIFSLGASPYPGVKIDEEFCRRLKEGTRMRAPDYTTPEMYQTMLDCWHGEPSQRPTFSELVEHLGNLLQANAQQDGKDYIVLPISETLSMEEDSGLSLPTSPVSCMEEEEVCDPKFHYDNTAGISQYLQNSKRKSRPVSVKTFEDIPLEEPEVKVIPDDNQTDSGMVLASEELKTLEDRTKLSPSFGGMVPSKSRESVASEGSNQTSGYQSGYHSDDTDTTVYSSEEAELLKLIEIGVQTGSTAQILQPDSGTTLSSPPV

Row | Compound | binding to VEGFR-2 (VEGFR-2) | adherence of endothelial cells on a medical device (endothelial cells)
1 | Cc1[nH]c(/C=C2\C(=O)Nc3ccccc32)c(C)c1CCC(=O)O [SU6668] | bind to VEGFR-2 | 
2 | VEGF |  | stimulate the adherence of endothelial cells on a medical device
